Test results published in PMC9343605, “Structural insights into ligand recognition and selectivity of somatostatin receptors” (Cell Research, 2022).
Blank lines part the entries; values can stand above or below the compound they belong to. Positions of bridges follow the written chain, without caps; N, C: chain ends. Residues, ends and D or L forms follow the SMILES beside them.

Tests used:
SSTR4 [1] = molecular target: T1, SSTR4 (Homo sapiens, UniProt P31391, F275A); test: cAMP accumulation assay (agonist-induced inhibition of forskolin-stimulated cAMP), SSTR4, HEK293F; assay type: cell-based; design: expressed in transfected cells; host or cells: HEK293F; settings: SSTR4 mutant F275^6.51A, mean ± SEM;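 further: transiently transfected cells incubated 40 min at room temperature with 4 µM forskolin and graded ligand, cAMP read by LANCE Ultra TR-FRET kit, values normalized to WT receptor per ligand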
T1 sequence (P31391 whole entry F275A): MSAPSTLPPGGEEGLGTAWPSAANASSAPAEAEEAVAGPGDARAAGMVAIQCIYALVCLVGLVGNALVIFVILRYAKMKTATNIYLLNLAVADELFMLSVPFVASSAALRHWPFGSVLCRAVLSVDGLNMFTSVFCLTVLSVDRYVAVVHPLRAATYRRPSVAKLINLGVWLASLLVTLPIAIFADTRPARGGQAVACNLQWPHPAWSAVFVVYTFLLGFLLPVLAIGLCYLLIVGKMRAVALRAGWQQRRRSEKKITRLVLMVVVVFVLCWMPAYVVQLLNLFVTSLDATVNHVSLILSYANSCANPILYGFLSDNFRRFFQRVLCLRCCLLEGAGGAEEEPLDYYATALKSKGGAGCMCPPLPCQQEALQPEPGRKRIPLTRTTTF
Description: (§1) HEK293F cells were transiently transfected with WT or mutant SSTR2/SSTR4 using transfection reagent (PEI MAX 2000, Polysciences) and incubated at 37 °C in 5% CO2. Forty-eight hours after transfection, cells were centrifuged and resuspended in stimulation buffer (Hanks’ balanced salt solution (HBSS) supplemented with 5 mM HEPES, 0.5 mM IBMX and 0.1% (w/v) bovine serum albumin (BSA), pH 7.4) to a density of 200,000 cells/mL and added to 384-well white plates (PerkinElmer, 1000 cells/well). cAMP accumulation was measured by a LANCE Ultra cAMP kit (PerkinElmer) according to the manufacturer’s instructions. In brief, transfected cells were incubated for 40 min in stimulation buffer with 2.5 μL forskolin (SSTR2: 2 μM; SSTR4: 4 μM) and gradient concentration of ligand at RT. The reactions were stopped by addition of lysis buffer containing 5 μL Eu-cAMP tracer and 5 μL ULight-anti-cAMP. Plates were then incubated for 60 min at RT and time-resolved FRET signals were measured at 620 nm and 665 nm by an EnVision multilabel plate reader (PerkinElmer). Data were analyzed in GraphPad PRISM 8 and all values were normalized to the WT for each ligand. All outcomes were repeated at least three times.
(§2) aMutants represent that mutations were introduced separately into the WT receptors and
(§3) transiently expressed in HEK 293F cells.
(§4) bThe EC50 ratio was shown as EC50(mutant)/EC50(WT), indicating the shift between the WT
(§5) and mutant curves, reflecting the effect of the mutations on receptor signaling.
(§6) cData are shown as mean ± S.E.M. from at least three independent experiments
(§7) performed in technical triplicate. One-way ANOVA was performed followed by
(§8) Dunnett’s post-test and compared with WT. The P value was defined as: *P<0.05;
(§9) d The span is defined as the window between the maximal agonists response (Emax) and
(§10) e Sample size; the number of independent experiments performed in technical triplicate.
(§11) f Receptor expression level of HEK 293F cells was determined independently by flow
(§12) cytometry with anti-FLAG antibody and shown as per cent compared to the WT.

SSTR4 [2] = molecular target: T2, SSTR4 (Homo sapiens, UniProt P31391, Q279A); test: as above; assay type: cell-based; design: expressed in transfected cells; host or cells: HEK293F; settings: SSTR4 mutant Q279^6.55A, mean ± SEM
T2 sequence (P31391 whole entry Q279A): as the sequence (P31391 whole entry F275A) above, with A275F, Q279A counted along it
Description: as §1, §2, §3, §4, §5, §6, §7, §8, §9, §10, §11, §12

SSTR4 [3] = molecular target: T3, SSTR4 (Homo sapiens, UniProt P31391, T215A); test: as above; assay type: cell-based; design: expressed in transfected cells; host or cells: HEK293F; settings: SSTR4 mutant T215^5.42A, mean ± SEM
T3 sequence (P31391 whole entry T215A): as the sequence (P31391 whole entry F275A) above, with T215A, A275F counted along it
Description: as §1, §2, §3, §4, §5, §6, §7, §8, §9, §10, §11, §12

SSTR4 [4] = molecular target: T4, SSTR4 (Homo sapiens, UniProt P31391); test: as above; assay type: cell-based; design: expressed in transfected cells; host or cells: HEK293F; settings: HEK293F, WT SSTR4, mean ± SEM
T4 sequence (P31391 whole entry): as the sequence (P31391 whole entry F275A) above, with A275F counted along it
Description: as §1, §2, §3, §4, §5, §6, §7, §8, §9, §10, §11, §12

SSTR4 [5] = molecular target: T5, SSTR4 (Homo sapiens, UniProt P31391, M130A); test: as above; assay type: cell-based; design: expressed in transfected cells; host or cells: HEK293F; settings: SSTR4 mutant M130^3.36A, mean ± SEM
T5 sequence (P31391 whole entry M130A): as the sequence (P31391 whole entry F275A) above, with M130A, A275F counted along it
Description: as §1, §2, §3, §4, §5, §6, §7, §8, §9, §10, §11, §12

SSTR4 [6] = molecular target: T6, SSTR4 (Homo sapiens, UniProt P31391, N199A); test: as above; assay type: cell-based; design: expressed in transfected cells; host or cells: HEK293F; settings: SSTR4 mutant N199^ECL2A, mean ± SEM
T6 sequence (P31391 whole entry N199A): as the sequence (P31391 whole entry F275A) above, with N199A, A275F counted along it
Description: as §1, §2, §3, §4, §5, §6, §7, §8, §9, §10, §11, §12

SSTR4 [7] = molecular target: T7, SSTR4 (Homo sapiens, UniProt P31391, N282A); test: as above; assay type: cell-based; settings: SSTR4 mutant N282^6.58A, mean ± SEM
T7 construct: expressed in transfected cells; host or cells: HEK293F
T7 sequence (P31391 whole entry N282A): as the sequence (P31391 whole entry F275A) above, with A275F, N282A counted along it
Description: as §1, §2, §3, §4, §5, §6, §7, §8, §9, §10, §11, §12

SSTR4 [8] = molecular target: T8, SSTR4 (Homo sapiens, UniProt P31391, N293A); test: as above; assay type: cell-based; settings: SSTR4 mutant N293^7.35A, mean ± SEM
T8 construct: expressed in transfected cells; host or cells: HEK293F
T8 sequence (P31391 whole entry N293A): as the sequence (P31391 whole entry F275A) above, with A275F, N293A counted along it
Description: as §1, §2, §3, §4, §5, §6, §7, §8, §9, §10, §11, §12

SSTR4 [9] = molecular target: SSTR4 (Homo sapiens, UniProt P31391, N293F); test: as above; assay type: cell-based; settings: HEK293F; SSTR4 mutant N293^7.35F; mean ± SEM; read-out: Span
SSTR4 (Homo sapiens, UniProt P31391, N293F), sequence (P31391 whole entry N293F): as the sequence (P31391 whole entry F275A) above, with A275F, N293F counted along it
Description: as §1, §2, §3, §4, §5, §6, §7, §8, §9, §10, §11, §12

SSTR4 [10] = molecular target: T9, SSTR4 (Homo sapiens, UniProt P31391, F211A); test: as above; assay type: cell-based; settings: SSTR4 mutant F211^5.38A, mean ± SEM
T9 construct: expressed in transfected cells; host or cells: HEK293F
T9 sequence (P31391 whole entry F211A): as the sequence (P31391 whole entry F275A) above, with F211A, A275F counted along it
Description: as §1, §2, §3, §4, §5, §6, §7, §8, §9, §10, §11, §12

SSTR4 [11] = molecular target: T10, SSTR4 (Homo sapiens, UniProt P31391, L297A); test: as above; assay type: cell-based; settings: SSTR4 mutant L297^7.39A, mean ± SEM
T10 construct: expressed in transfected cells; host or cells: HEK293F
T10 sequence (P31391 whole entry L297A): as the sequence (P31391 whole entry F275A) above, with A275F, L297A counted along it
Description: as §1, §2, §3, §4, §5, §6, §7, §8, §9, §10, §11, §12

SSTR4 [12] = molecular target: SSTR4 (Homo sapiens, UniProt P31391, R110A); test: as above; assay type: cell-based; settings: SSTR4 mutant R110^ECL1A, mean ± SEM
SSTR4 (Homo sapiens, UniProt P31391, R110A), sequence (P31391 whole entry R110A): as the sequence (P31391 whole entry F275A) above, with R110A, A275F counted along it
Description: as §1, §2, §3, §4, §5, §6, §7, §8, §9, §10, §11, §12

SSTR4 [13] = molecular target: SSTR4 (Homo sapiens, UniProt P31391, S208W); test: as above; assay type: cell-based; settings: SSTR4 mutant S208^5.35W, mean ± SEM
SSTR4 (Homo sapiens, UniProt P31391, S208W), sequence (P31391 whole entry S208W): as the sequence (P31391 whole entry F275A) above, with S208W, A275F counted along it
Description: as §1, §2, §3, §4, §5, §6, §7, §8, §9, §10, §11, §12

SSTR4 [14] = molecular target: T8, SSTR4; test: Whole cell binding assay, SSTR4, competition with 125I-Tyr11-SST14, CHO-K1; settings: SSTR4 mutant N293^7.35A, mean ± SEM
Description: (§13) For SSTR2 and SSTR4, CHO-K1 cells were cultured in F12 medium with 10% FBS and seeded at a density of 30,000 cells/well in Isoplate-96 plates (PerkinElmer). Twenty-four hours after transfection with the WT or mutant SSTR2/SSTR4, CHO-K1 cells were washed twice and incubated with blocking buffer (F12 supplemented with 25 mM HEPES and 0.1% (w/v) BSA, pH 7.4) for 2 h at 37 °C. […] Following incubation, cells were washed three times with ice-cold PBS and lysed by 50 μL lysis buffer (PBS supplemented with 20 mM Tris-HCl, 1% Triton X-100, pH 7.4). The radioactivity was subsequently counted (counts/min, CPM) in a scintillation counter (MicroBeta[2] Plate Counter, PerkinElmer) using a scintillation cocktail (OptiPhaseSuperMix, PerkinElmer). Data were analyzed by nonlinear regression using GraphPad PRISM 8.
(§14) aMutants represent that all mutations were introduced separately into the WT receptors
and expressed in CHO K1 cells.
(§15) bThe IC50 ratio was shown as IC50(mutant)/IC50(WT), indicating the shift between the WT
(§16) and mutant curves, reflecting the effect of the mutations on ligand binding.
(§17) cData are shown as mean ± S.E.M. form at least three independent experiments
as §7
(§18) Dunnett’s post-test and compared with WT.
as §9, §10

SSTR4 [15] = molecular target: SSTR4 (Homo sapiens, UniProt P31391, S208A); test: as above; settings: SSTR4 mutant S208^5.35A, mean ± SEM
SSTR4 (Homo sapiens, UniProt P31391, S208A), sequence (P31391 whole entry S208A): as the sequence (P31391 whole entry F275A) above, with S208A, A275F counted along it
Description: as §13, §14
and expressed in CHO K1 cells.
as §15, §16, §17, §7, §18, §9, §10

SSTR4 [16] = molecular target: SSTR4 (Homo sapiens, UniProt P31391, D126A); test: as above; design: expressed in transfected cells; settings: CHO-K1; SSTR4 mutant D126^3.32A; mean ± SEM; read-out: Span
SSTR4 (Homo sapiens, UniProt P31391, D126A), sequence (P31391 whole entry D126A): as the sequence (P31391 whole entry F275A) above, with D126A, A275F counted along it
Description: as §13, §14
and expressed in CHO K1 cells.
as §15, §16, §17, §7, §18, §9, §10

SSTR4 [17] = molecular target: T1, SSTR4; test: as above; design: expressed in transfected cells; settings: CHO-K1; SSTR4 mutant F275^6.51A; mean ± SEM; read-out: Span
Description: as §13, §14
and expressed in CHO K1 cells.
as §15, §16, §17, §7, §18, §9, §10

SSTR4 [18] = molecular target: SSTR4 (Homo sapiens, UniProt P31391, Y301A); test: as above; design: expressed in transfected cells; settings: CHO-K1; SSTR4 mutant Y301^7.43A; mean ± SEM; read-out: Span
SSTR4 (Homo sapiens, UniProt P31391, Y301A), sequence (P31391 whole entry Y301A): as the sequence (P31391 whole entry F275A) above, with A275F, Y301A counted along it
Description: as §13, §14
and expressed in CHO K1 cells.
as §15, §16, §17, §7, §18, §9, §10

SSTR4 [19] = molecular target: T2, SSTR4; test: as above; design: expressed in transfected cells; settings: SSTR4 mutant Q279^6.55A, mean ± SEM
Description: as §13, §14
and expressed in CHO K1 cells.
as §15, §16, §17, §7, §18, §9, §10

SSTR4 [20] = molecular target: T3, SSTR4; test: as above; design: expressed in transfected cells; settings: SSTR4 mutant T215^5.42A, mean ± SEM
Description: as §13, §14
and expressed in CHO K1 cells.
as §15, §16, §17, §7, §18, §9, §10

SSTR4 [21] = molecular target: T4, SSTR4; test: as above; design: expressed in transfected cells; settings: WT SSTR4, mean ± SEM
Description: as §13, §14
and expressed in CHO K1 cells.
as §15, §16, §17, §7, §18, §9, §10

SSTR4 [22] = molecular target: T5, SSTR4; test: as above; design: expressed in transfected cells; settings: CHO-K1; SSTR4 mutant M130^3.36A; mean ± SEM; read-out: Span
Description: as §13, §14
and expressed in CHO K1 cells.
as §15, §16, §17, §7, §18, §9, §10

SSTR4 [23] = molecular target: T6, SSTR4; test: as above; design: expressed in transfected cells; settings: CHO-K1; SSTR4 mutant N199^ECL2A; mean ± SEM; read-out: Span
Description: as §13, §14
and expressed in CHO K1 cells.
as §15, §16, §17, §7, §18, §9, §10

[24] = cited from earlier work
Description: Along with increased knowledge of the pharmacological effects of these receptors, medical application of SST and its analogs has expanded. A considerable amount of effort has been made to develop new therapeutics for oncology of SSTRs. […] It was found recently that radiolabeled SSTR antagonists produced superi ...

SSTR1–5 = settings: cited from earlier work
Description: Somatostatin (SST), an inhibitory hormone that distributes widely in both human central nervous system and periphery tissues negatively regulates multiple hormone releases (growth hormone, glucagon, insulin, gastrin and cholecystokinin) and cell proliferation through SST receptors (SSTRs).[1]–[4] There are five types of SSTRs, namely SSTR1–SSTR5, which are divided into two subfamilies: SRIF1 (SSTR2, SSTR3, SSTR5) and SRIF2 (SSTR1, SSTR4) based on phylogenetic, sequence homology and ligand binding profiles.[5] Two bioactive SST peptides, SST-14 and its N-terminally extended form SST-28, have be ...

[25] = at least three independent experiments

Emax (SSTR4 [1]; HEK293F, read-out: Span): 20 ± 5%
EC50 (SSTR4 [1]): 676 nM
Emax (SSTR4 [2]; HEK293F, read-out: Span): 77 ± 5%
EC50 (SSTR4 [2]): 5.01 nM
Emax (SSTR4 [3]; HEK293F, read-out: Span): 79 ± 6%
EC50 (SSTR4 [3]): 0.479 nM
Emax (SSTR4 [4]; window between Emax and vehicle, read-out: Span): 100 ± 3%
EC50 (SSTR4 [4]; [25]): 1.26 nM
Emax (SSTR4 [5]; HEK293F, read-out: Span): 72 ± 4%
EC50 (SSTR4 [5]): 97.7 nM
Emax (SSTR4 [6]; HEK293F, read-out: Span): 93 ± 6%
EC50 (SSTR4 [6]): 15.1 nM
Emax (SSTR4 [7]; HEK293F, read-out: Span): 48 ± 2%
EC50 (SSTR4 [7]): 2.34 nM
Emax (SSTR4 [8]; HEK293F, read-out: Span): 106 ± 7%
EC50 (SSTR4 [8]): 3.47 nM
Emax (SSTR4 [9]): 16 ± 7%
Emax (SSTR4 [10]; HEK293F, read-out: Span): 65 ± 5%
EC50 (SSTR4 [10]): 145 nM
Emax (SSTR4 [11]; HEK293F, read-out: Span): 99 ± 8%
EC50 (SSTR4 [11]): 102 nM
Emax (SSTR4 [12]; HEK293F, read-out: Span): 100 ± 6%
EC50 (SSTR4 [12]): 1.91 nM
Emax (SSTR4 [13]; HEK293F, read-out: Span): 58 ± 6%
EC50 (SSTR4 [13]): 1.12 nM
Emax (SSTR4 [14]; CHO-K1, read-out: Span): 132 ± 12%
IC50 (SSTR4 [14]): 1.29 nM
Emax (SSTR4 [15]; CHO-K1, read-out: Span): 152 ± 11%
IC50 (SSTR4 [15]): 0.0708 nM
Emax (SSTR4 [16]): 23 ± 8%
Emax (SSTR4 [17]): 23 ± 5%
Emax (SSTR4 [18]): 30 ± 16%
Emax (SSTR4 [19]; CHO-K1, read-out: Span): 45 ± 12%
IC50 (SSTR4 [19]): 1.35 nM
Emax (SSTR4 [20]; CHO-K1, read-out: Span): 96 ± 15%
IC50 (SSTR4 [20]): 0.0676 nM
Emax (SSTR4 [21]; CHO-K1, read-out: Span): 100 ± 7%
IC50 (SSTR4 [21]; [25]): 3.8 nM
Emax (SSTR4 [22]): 26 ± 5%
Emax (SSTR4 [23]): 26 ± 7%
Compound: C[C@@H]1NC(=O)[C@H](Cc2ccccc2)NC(=O)[C@@H](N)CSSC[C@@H](C(=O)O)NC(=O)[C@H](Cc2ccccc2)NC(=O)[C@H]([C@@H](C)O)NC(=O)[C@H](CCCCN)NC(=O)[C@H](Cc2c[nH]c3ccccc23)NC1=O [Peptide3] (H-CFAWKTFC-OH; disulfide 1-8)

Compound: SST: Somatostatin, an inhibitory hormone
half-life [24]: less than 3 min

Compound: SST-28: N-terminally extended form of bioactive SST peptide
affinity for SSTR1–5 (SSTR1–5): high and equal affinity for SSTR1–5
